Where a name gives a salt, the structure may show the parent alone. Read-outs that look alike come from different tables or passages of the source.
Tests used:
Format in all cases: cell-based
[1] = system: HEL cells (human acute myelocytic leukemia cell lines); assay: Cell-growth inhibition test: HEL cells; settings: read-out: IC50 (nM), Cell-Growth Inhibition Test: HEL Cells
Procedure: (§1) Under the following conditions, an in vitro cell-growth inhibition test was performed with respect to HEL cells (human acute myelocytic leukemia cell lines), NCI-H1417 cells (human small-cell lung cancer cell lines), and NCI-H146 cells (human small-cell lung cancer cell lines).
(§2) The cells with the Example compound or with dimethylsulfoxide alone were cultured at 37° C. in a 5% carbon-dioxide-containing incubator for 5 days (HEL cells) or 10 days (NCI-H1417 cells and NCI-H146 cells). After culture, the plate was allowed to stand at room temperature for 30 minutes, and 100 μL of the supernatant was removed from each well to leave 100 μL of the cell culture solution. To each well containing the remaining 100 μL of the cell culture solution, the same amount of CellTiter-Glo 2.0 Assay (Promega, Cat #: G9242) was added. The microplate was shaken with a plate mixer for 1 minute and then allowed to stand in a dark place for 10 minutes. Thereafter, the luminescence intensity of viable cells in each well was measured using a microplate reader (PerkinElmer, EnSpire). […] Cell growth rate(%)=T/C×100 • T: The luminescence intensity in a well to which the test compound was added (count per second) • C: The luminescence intensity in a well to which dimethylsulfoxide alone was added (count per second)

[2] = system: NCI-H1417 cells (human small-cell lung cancer cell lines); assay: Cell-growth inhibition test: NCI-H1417 cells
Procedure: as §1, §2

[3] = system: NCI-H146 cells (human small-cell lung cancer cell lines); assay: Cell-growth inhibition test: NCI-H146 cells
Procedure: as §1, §2

[4] = read-out: IC50 (nM), Cell-Growth Inhibition Test: NCI-H1417 Cells
[5] = NCI-H146 cells, read-out: IC50 (nM), Cell-Growth Inhibition Test: NCI-H146 Cells
[6] = NCI-H1417 cells, read-out: IC50 (nM), Cell-Growth Inhibition Test: NCI-H1417 Cells
[7] = Homo sapiens, NCI-H146, read-out: IC50 (nM), Cell-Growth Inhibition Test: NCI-H146 Cells
[8] = Homo sapiens, NCI-H1417, read-out: IC50 (nM), Cell-Growth Inhibition Test: NCI-H1417 Cells

| SMILES | IC50 [1] [nM] | IC50 [2, 4] [nM] | IC50 [3, 5] [nM] | IC50 [2, 6] [nM] | further results |
| --- | --- | --- | --- | --- | --- |
| CC(C)(O)Cn1ncc2cc(-c3ccc(C(=O)N4C5CCC4CC(N)C5)cc3-c3ccc(C#N)c(F)c3)c(F)cc21 (stereo not drawn) [Example 142, 5′-((3-endo)-3-amino-8-azabicyclo[3.2.1]octane-8-carbonyl)-3-fluoro-2′-(6-fluoro-1-(2-hydroxy-2-methylpropyl)-1H-indazol-5-yl)-[1,1′-biphenyl]-4-carbonitrile] | 3.88 | 3.79 |  |  |  |
| CC(C)(O)Cn1nnc2cc(-c3ccc(CN4[C@@H]5CC[C@H]4[C@@H](N)C5)cc3-c3ccc(C#N)c(F)c3)c(F)c(F)c21.Cl.Cl (single isomer, unassigned) [Example 285, dihydrochloride] | 0.046 | 0.09 | 0.49 |  |  |
| CC(C)(O)Cn1nnc2cc(-c3ccc(C(=O)N4[C@H]5CC[C@@H]4[C@H](N)C5)cc3-c3ccc(C#N)c(F)c3)c(F)c(C3CC3)c21 (single isomer, unassigned) [Example 279] | 1.59 | 0.9 |  |  |  |
| N#Cc1ccc(-c2cc(C(=O)N3[C@@H]4CC[C@H]3[C@@H](N)C4)ccc2-c2cc3nnn(CC4(O)CCC4)c3c(Cl)c2F)cc1F (single isomer, unassigned) [Example 257] | 0.13 |  | 0.39 |  |  |
| Cc1ccc(-c2ccc(C(=O)N3C4CCC3CC(N)C4)cc2-c2ccc(C#N)cc2)cc1 (stereo not drawn) [Example 7, 4-[5-[(3-exo)-3-amino-8-azabicyclo[3.2.1]octane-8-carbonyl]-2-(p-tolyl)phenyl]benzonitrile] |  |  |  | 26 | IC50 ([1]; HEL cells): 14.8 nM |
| N#Cc1ccc(-c2cc(C(=O)N3CC[C@H](N)C3)ccc2-c2cc3nnn(CC4(O)CCC4)c3c(C(F)F)c2F)cc1F [Example 261, (S)-5′-(3-aminopyrrolidine-1-carbonyl)-2′-(7-(difluoromethyl)-6-fluoro-1-((1-hydroxycyclobutyl)methyl)-1H-benzo[d][1,2,3]triazol-5-yl)-3-fluoro-[1,1′-biphenyl]-4-carbonitrile] |  |  |  |  | IC50 [3, 7]: 32.3 nM |
| Cn1c(=O)sc2cc(-c3ccc(C(=O)N4C5CCC4CC(N)C5)cc3-c3ccc(C#N)c(F)c3)ccc21 (stereo not drawn) [Example 133, 4-[5-[(3-endo)-3-amino-8-azabicyclo[3.2.1]octane-8-carbonyl]-2-(3-methyl-2-oxo-1,3-benzothiazol-6-yl)phenyl]-2-fluoro-benzonitrile] |  |  |  | 17.9 | IC50 ([1]; HEL cells): 17.7 nM |
| CC(C)(O)Cn1ncc2cc(-c3ccc(CN4[C@@H]5CC[C@H]4[C@@H](N)C5)cc3-c3ccc(C#N)c(F)c3)c(F)cc21 (single isomer, unassigned) [Example 287, dihydrochloride] |  | 0.1 | 0.2 |  |  |
| CC(C)(O)Cn1nnc2cc(-c3ccc(C(=O)N4[C@@H]5CC[C@H]4[C@@H](N)C5)cc3-c3ccc(C#N)c(F)c3)c(F)c(C(F)F)c21 (single isomer, unassigned) [Example 246] | 0.37 | 0.81 |  |  |  |
| CC(C)(O)Cn1cc(C(=O)O)c2cc(-c3ccc(C(=O)N4[C@@H]5CC[C@H]4[C@@H](N)C5)cc3-c3ccc(C#N)c(F)c3)c(F)cc21 (single isomer, unassigned) [Example 222] | 38 | 41.8 |  |  |  |
| CC(C)(O)Cn1nnc2cc(-c3ccc(C(=O)N4[C@@H]5CC[C@H]4[C@@H](N)C5)cc3-c3ccc(C#N)c(F)c3)c(F)c(Br)c21 (single isomer, unassigned) [Example 273] | 0.27 |  | 0.63 |  |  |
| Cn1cc(C(N)=O)c2cc(-c3ccc(C(=O)N4[C@@H]5CC[C@H]4[C@@H](N)C5)cc3-c3ccc(C#N)c(F)c3)c(F)cc21 (single isomer, unassigned) [Example 236] |  | 11 | 28.5 |  |  |
| Cn1cnc2cc(-c3ccc(C(=O)N4C5CCC4CC(N)C5)cc3-c3ccc(C#N)c(F)c3)c(F)cc21 (stereo not drawn) [Example 108, 4-[5-[(3-exo)-3-amino-8-azabicyclo[3.2.1]octane-8-carbonyl]-2-(6-fluoro-1-methyl-benzimidazol-5-yl)phenyl]-2-fluoro-benzonitrile] |  |  |  | 3.99 | IC50 ([1]; HEL cells): 36.4 nM |
| CCC(O)(CC)Cn1ncc2cc(-c3ccc(C(=O)N4CC[C@H](N)C4)cc3-c3ccc(C#N)c(F)c3)c(F)cc21 [Example 204, (S)-5′-(3-aminopyrrolidine-1-carbonyl)-2′-(1-(2-ethyl-2-hydroxybutyl)-6-fluoro-1H-indazol-5-yl)-3-fluoro-[1,1′-biphenyl]-4-carbonitrile] |  |  |  |  | IC50 [2, 8]: 1.98 nM |
| CC(C)(O)Cn1ccc2cc(-c3ccc(C(=O)C4CC5(CNC5)CN4)cc3-c3ccc(C#N)c(F)c3)c(F)c(F)c21 (centres unmarked) [Example 200, 2′-(6,7-difluoro-1-(2-hydroxy-2-methylpropyl)-1H-indol-5-yl)-3-fluoro-5′-(2,7-diazaspiro[3.4]octane-6-carbonyl)-[1,1′-biphenyl]-4-carbonitrile] |  |  |  |  | IC50 [2, 8]: 0.18 nM |
| CC(C)(O)Cn1nnc2cc(-c3ccc(C(=O)N4[C@@H]5CC[C@H]4[C@@H](N)C5)cc3-c3ccc(C#N)c(F)c3)c(F)c(Cl)c21 (single isomer, unassigned) [Example 209] | 0.24 |  | 0.22 |  |  |
| CC(C)(O)Cn1ncc2cc(-c3ccc(C(=O)N4[C@@H]5CC[C@H]4[C@@H](N)C5)cc3-c3ccc(C#N)c(F)c3)c(F)c(F)c21 (relative stereo) [Example 195, 5′-((1S,2S,4R)-rel-2-amino-7-azabicyclo[2.2.1]heptane-7-carbonyl)-2′-(6,7-difluoro-1-(2-hydroxy-2-methylpropyl)-1H-indazol-5-yl)-3-fluoro-[1,1′-biphenyl]-4-carbonitrile] |  |  |  |  | IC50 [3, 7]: 1.28 nM |
| N#Cc1ccc(-c2cc(C(=O)N3C4CCC3CC(N)C4)ccc2-c2ccc3cccnc3c2)cc1F (stereo not drawn) [Example 107, 4-[5-[(3-exo)-3-amino-8-azabicyclo[3.2.1]octane-8-carbonyl]-2-(7-quinonyl)phenyl]-2-fluoro-benzonitrile] |  |  |  | 18.2 |  |
| CC(C)(O)Cc1ccc(-c2ccc(C(=O)N3C4CCC3CC(N)C4)cc2-c2ccc(C#N)c(F)c2)c(F)c1 (stereo not drawn) [Example 28, 4-[5-[(3-exo)-3-amino-8-azabicyclo[3.2.1]octane-8-carbonyl]-2-[2-fluoro-4-(2-hydroxy-2-methyl-propyl)phenyl]phenyl]-2-fluoro-benzonitrile] |  |  |  | 4.4 |  |
| COCCc1ccc(-c2ccc(C(=O)N3CCCC(N)CC3)cc2-c2ccc(C#N)c(F)c2)c(F)c1 (centres unmarked) [Example 165, 5′-(4-aminoazepan-1-carbonyl)-2″,3-difluoro-4″-(2-methoxyethyl)-[1,1′:2′,1″-terphenyl]-4-carbonitrile] |  |  |  |  | IC50 ([1]; Homo sapiens, HEL): 0.62 nM; IC50 [2, 8]: 1.42 nM |
| Cn1nnc2cc(-c3ccc(C(=O)N4C5CCC4CC(N)C5)cc3-c3ccc(C#N)c(F)c3)c(F)cc21 (stereo not drawn) [Example 125, 4-[5-[(3-endo)-3-amino-8-azabicyclo[3.2.1]octane-8-carbonyl]-2-(6-fluoro-1-methyl-benzotriazol-5-yl)phenyl]-2-fluoro-benzonitrile] |  |  |  | 8.43 | IC50 ([1]; HEL cells): 7.57 nM |
| CC(C)(O)Cc1ccc(-c2ccc(CN3[C@@H]4CC[C@H]3[C@@H](N)C4)cc2-c2ccc(C#N)c(F)c2)c(F)c1 (single isomer, unassigned) [Example 290, dihydrochloride] |  | 1.06 | 2.12 |  |  |
| Cn1cnc2cc(-c3ccc(C(=O)N4C5CCC4CC(N)C5)cc3-c3ccc(C#N)c(F)c3)c(F)cc21 (stereo not drawn) [Example 130, 4-[5-[(3-endo)-3-amino-8-azabicyclo[3.2.1]octane-8-carbonyl]-2-(6-fluoro-1-methyl-benzimidazol-5-yl)phenyl]-2-fluoro-benzonitrile] |  |  |  | 8.25 | IC50 ([1]; HEL cells): 22.2 nM |

Reference: patent US12435128B2, “Method for predicting therapeutic effect of LSD1 inhibitor based on expression of INSM1” (TAIHO PHARMACEUTICAL CO., LTD., priority 2017, dated 2025)
